Values of other authors as cited in patent publication US20110251195A1, “ADRB2 GENE PO[…] INTRAOCULAR PRESSURE RESPONSE TO TOPICAL BETA-BLOCKERS” (Marshfield Clinic, priority 2008, published 2011).

Test system: ADRB2 gene product (Gln27 / Glu27)
Conditions: Glu27 versus Gln27 ADRB2 variant

## CC(C)NCC(O)c1ccc(O)c(O)c1 (stereo not shown) [isoprenaline]
  fold greater isoprenaline concentration necessary to down-regulate Glu27 to the same extent as Gln27: 60 fold
